# Measured values: paper PMC7016953 (Cells, 2020)
# Like-named read-outs stand apart in the source and are kept apart here.
# How the values were obtained:
# [1] = biological target: T1, TRPC3 (Homo sapiens, UniProt Q13507); assay: Whole-cell patch-clamp recordings in HEK TRPC3-YFP cells; assay type: cell-based; conditions: for EC50: n = 12–27 cells
# T1 construct: expressed in transfected cells
# T1 sequence (Q13507 1-848 isoform Q13507-3): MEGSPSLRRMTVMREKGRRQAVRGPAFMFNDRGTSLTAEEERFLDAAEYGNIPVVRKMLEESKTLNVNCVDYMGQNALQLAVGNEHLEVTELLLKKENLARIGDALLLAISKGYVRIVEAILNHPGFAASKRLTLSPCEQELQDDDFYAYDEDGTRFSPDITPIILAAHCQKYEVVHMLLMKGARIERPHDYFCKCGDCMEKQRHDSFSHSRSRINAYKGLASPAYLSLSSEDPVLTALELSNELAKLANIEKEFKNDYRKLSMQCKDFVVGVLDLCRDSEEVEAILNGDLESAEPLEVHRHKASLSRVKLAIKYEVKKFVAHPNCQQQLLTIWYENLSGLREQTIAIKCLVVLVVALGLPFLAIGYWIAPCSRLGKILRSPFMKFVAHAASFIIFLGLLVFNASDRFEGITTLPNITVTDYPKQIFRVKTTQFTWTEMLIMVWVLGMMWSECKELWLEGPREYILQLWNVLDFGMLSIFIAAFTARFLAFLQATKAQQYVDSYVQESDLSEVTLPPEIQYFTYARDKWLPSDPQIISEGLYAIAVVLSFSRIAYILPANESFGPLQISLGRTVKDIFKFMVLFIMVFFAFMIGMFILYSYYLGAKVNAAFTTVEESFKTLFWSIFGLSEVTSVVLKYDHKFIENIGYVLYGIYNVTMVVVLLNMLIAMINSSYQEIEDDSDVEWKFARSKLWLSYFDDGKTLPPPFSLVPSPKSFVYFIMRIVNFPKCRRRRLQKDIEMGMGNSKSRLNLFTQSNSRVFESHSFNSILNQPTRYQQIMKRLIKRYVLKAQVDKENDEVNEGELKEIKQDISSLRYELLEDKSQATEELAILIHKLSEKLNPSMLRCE
# Method: (§1) The recordings of TRPC3, TRPC6, or TRPC7 membrane currents in HEK293 or PC12 cells were realized by using a Multiclamp 700B amplifier with a Digidata 1440A digitizer controlled by the PClamp 10 software (all Molecular Devices, Sunnyvale, CA, U.S.A.). Recordings were obtained at room temperature either in the whole-cell or in an outside-out configuration as indicated. Cells were seeded as described above, but at lower density, mounted in a chamber (Warner Instruments, Hamden, CT; U.S.A.), placed onto the stage of an inverted microscope, and perfused with required solution. The standard extracellular solution contained 140 mM NaCl, 5 mM CsCl, 2 mM MgCl2, 1 mM CaCl2, 10 mM HEPES, and 0.035% BSA adjusted to pH 7.4 with NaOH. The composition of standard intracellular solution was 140 mM CsCl, 1 mM MgCl2, 5 mM EGTA, and 10 mM HEPES adjusted to pH 7.25 with CsOH; the osmolarity was 295 mOsm l^−1. In outside-out measurements, the pipette solution contained 5 mM EGTA and 1.1 mM CaCl2 to achieve a calculated free Ca^2+ concentration of 100 nM.
# Patch pipettes were pulled from borosilicate glass capillaries BG150F-8P (Science Products, Hofheim, Germany) with a PIP6 pipette puller (HEKA Elektronik, Lambrecht, Germany). […] In all whole-cell measurements, the series resistance was lower than 13 MΩ, and compensated by 70%. If the access was unstable during the experiment (increase in series resistance by more than 15% at the end of the experiment), the cell was omitted from the analysis. To record current/voltage (I/V) curves, voltage ramps (400 mV s^−1) ranging from –100 to +100 mV were applied. Currents were filtered at 3 kHz with a four-pole Bessel filter and sampled at 10 kHz.
# Figure 4 Electrophysiological analysis of artemisinin-induced whole-cell currents in HEKTRPC3-YFP cells. The voltage protocol depicted in the box (duration of 0.8 s) was applied in 1 s intervals, and steady state inward and outward current densities averaged at potentials of –100 or +100 mV as well as voltage ramps (0.4 Vs^−1) were extracted from the data. (A) Current densities at +100 and –100 mV, respectively.
# [2] = test system: T2, hTRPC7-YFP; assay: Fluo-4 Ca2+ influx assay in HEK293 cells stably expressing TRPC7; assay type: cell-based, human; conditions: fluo-4 concentration response analysis
# T2 construct: expressed in transfected cells
# [3] = test system: T3, TRPC6; assay: Whole-cell patch-clamp recordings in HEK TRPC6-YFP cells; assay type: cell-based, human; conditions: 100 µM artemisinin
# T3 construct: expressed in transfected cells
# Method: as §1
# Patch pipettes were pulled from borosilicate glass capillaries BG150F-8P (Science Products, Hofheim, Germany) with a PIP6 pipette puller (HEKA Elektronik, Lambrecht, Germany). […] In all whole-cell measurements, the series resistance was lower than 13 MΩ, and compensated by 70%. […]
# [4] = test system: parental HEK293 cells; assay: MTT cell viability assay; assay type: cell-based, human; conditions: 24 h
# Method: Cells were seeded in poly-L-lysine-coated 96-well plates at a density of 10,000 cells per well. After 24 h, the medium was exchanged, and compounds or the corresponding solvent were added and incubated for another 24 h. Then, the medium was removed, and a fresh medium containing 0.5 mg/mL MTT was added. After 3 h of incubation, supernatants were aspirated, and cells containing formazan crystals were lysed with 100% DMSO. Finally, absorbance of DMSO-dissolved formazan was measured at 560 and 670 nm with a plate reader (Polarstar Omega, BMG Labtech, Germany). The differences of both extinctions were calculated, and values were normalized to a solvent control (0.25% DMSO).
# [5] = test system: T4, TRPC7; assay: Microfluorometric single-cell [Ca2+]i analysis, fura-2-loaded HEK cells stably expressing TRPC7; assay type: cell-based, human; conditions: 50 µM
# T4 construct: expressed in transfected cells
# Method: The microfluorometric single-cell [Ca^2+]i analysis was performed on an inverted epifluorescence microscope (Carl Zeiss, Jena, Germany) and calibrated as described. Cells were grown on 25 mm coverslips and loaded with 4 µM fura-2/AM (AAT Bioquest, Sunnyvale, CA, U.S.A.) in HBS containing 0.2% BSA for 30 min at 37 °C. […] Experiments were performed either in standard bath solution, containing 1 mM Ca^2+ (black lines and bars), or in a nominally Ca^2+-free HBS buffer, supplemented with 200 µM EGTA (grey lines and bars). Time courses of averaged responses (left), and statistical analysis of 6–11 independent imaging experiments with means and S.D. (right) are shown. Significant differences (p < 0.05, Student´s t-test with paired data: #, with unpaired data: *) are marked for the indicated comparisons; n.s.: difference is statistically not significant.
smiles,measurement,setting,value
C[C@@H]1CC[C@H]2[C@@H](C)C(=O)O[C@@H]3O[C@@]4(C)CC[C@@H]1[C@]32OO4 [artemisinin],"Hill coefficient, outward currents",[1]; +100 mV,2.2
same,EC50,"[1]; +100 mV, read-out: EC50 to activate TRPC3 outward currents",33 µM
same,"Hill coefficient, inward currents",[1]; −100 mV,2.4
same,EC50,"[1]; −100 mV, read-out: EC50 to activate TRPC3 inward currents",25 µM
same,effect on TRPC7,[2],weakly activated
same,ionic currents in TRPC6-expressing HEK cells,[3],remained unaffected
same,metabolic activity (MTT test),[4]; 100 µM,slight and statistically significant reduction of metabolic activity
same,metabolic activity (MTT test),[4]; concentrations up to 50 µM,did not reduce the metabolic activity
same,[Ca2+]i signal in TRPC7-expressing cells in Ca2+-free bath,[5]; nominally Ca2+-free HBS with 200 µM EGTA,abolished
same,[Ca2+]i response in TRPC7-overexpressing cells,[5]; standard bath 1 mM Ca2+,only a weak [Ca^2+]i signal
